Measurements reported in publication PMC11864979, “First-in-class ultralong-target-residence-time p38α inhibitors as a mitosis-targeted therapy for colorectal cancer” (Nature Cancer, 2025).
Read-outs that look alike come from different tables or passages of the source.

Tests used:
Experiment in all cases: selectivity profiling in a panel of 340 wild-type kinases (Reaction Biology Europe)
Format in all cases: binding
[1] = biological target: T1, 340 wild-type kinases (Homo sapiens, UniProt Q9Y6E0)
T1 construct: purchased Reaction Biology Europe
T1 sequence (Q9Y6E0 whole entry): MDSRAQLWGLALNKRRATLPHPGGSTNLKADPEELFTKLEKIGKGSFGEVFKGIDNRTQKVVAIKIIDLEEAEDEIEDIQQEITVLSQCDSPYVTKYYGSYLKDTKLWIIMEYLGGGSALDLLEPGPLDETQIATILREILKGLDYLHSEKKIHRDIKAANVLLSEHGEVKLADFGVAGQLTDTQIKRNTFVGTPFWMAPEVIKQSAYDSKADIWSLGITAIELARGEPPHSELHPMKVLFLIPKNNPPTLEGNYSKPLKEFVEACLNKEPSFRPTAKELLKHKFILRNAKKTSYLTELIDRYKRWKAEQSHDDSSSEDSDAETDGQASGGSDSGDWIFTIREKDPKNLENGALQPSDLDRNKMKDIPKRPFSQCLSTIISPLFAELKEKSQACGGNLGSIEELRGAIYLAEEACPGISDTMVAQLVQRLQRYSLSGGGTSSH

[2] = biological target: T2, 340 wild-type kinases (Homo sapiens, UniProt P16234)
T2 construct: purchased Reaction Biology Europe
T2 sequence (P16234 24-1089): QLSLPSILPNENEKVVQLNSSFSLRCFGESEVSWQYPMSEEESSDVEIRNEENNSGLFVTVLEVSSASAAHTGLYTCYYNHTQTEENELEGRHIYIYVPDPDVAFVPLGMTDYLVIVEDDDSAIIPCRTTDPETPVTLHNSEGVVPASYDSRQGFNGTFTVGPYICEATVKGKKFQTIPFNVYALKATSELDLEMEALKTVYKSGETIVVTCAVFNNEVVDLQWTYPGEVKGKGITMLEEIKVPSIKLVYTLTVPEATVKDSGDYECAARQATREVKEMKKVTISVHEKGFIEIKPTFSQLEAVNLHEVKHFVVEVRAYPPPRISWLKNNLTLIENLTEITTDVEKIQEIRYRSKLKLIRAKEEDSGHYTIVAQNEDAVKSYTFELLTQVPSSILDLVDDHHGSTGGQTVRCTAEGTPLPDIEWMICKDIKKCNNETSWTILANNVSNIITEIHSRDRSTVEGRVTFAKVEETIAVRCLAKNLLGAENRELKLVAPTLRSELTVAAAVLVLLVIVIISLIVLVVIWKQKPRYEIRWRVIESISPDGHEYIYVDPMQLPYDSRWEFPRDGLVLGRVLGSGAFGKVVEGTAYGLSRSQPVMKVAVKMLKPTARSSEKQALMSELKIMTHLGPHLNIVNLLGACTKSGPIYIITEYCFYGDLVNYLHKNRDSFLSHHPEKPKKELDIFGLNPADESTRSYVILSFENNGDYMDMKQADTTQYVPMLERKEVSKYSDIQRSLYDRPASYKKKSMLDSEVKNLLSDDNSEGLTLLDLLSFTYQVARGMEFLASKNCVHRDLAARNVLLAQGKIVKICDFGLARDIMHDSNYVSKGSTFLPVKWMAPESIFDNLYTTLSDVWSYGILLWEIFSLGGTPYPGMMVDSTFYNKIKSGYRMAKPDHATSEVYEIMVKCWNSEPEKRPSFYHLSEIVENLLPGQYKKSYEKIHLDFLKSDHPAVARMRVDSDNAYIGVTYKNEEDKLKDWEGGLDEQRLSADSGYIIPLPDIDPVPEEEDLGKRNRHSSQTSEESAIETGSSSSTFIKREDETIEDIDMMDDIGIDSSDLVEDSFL

[3] = biological target: T3, 340 wild-type kinases (Homo sapiens, UniProt O43353)
T3 construct: purchased Reaction Biology Europe
T3 sequence (O43353 whole entry): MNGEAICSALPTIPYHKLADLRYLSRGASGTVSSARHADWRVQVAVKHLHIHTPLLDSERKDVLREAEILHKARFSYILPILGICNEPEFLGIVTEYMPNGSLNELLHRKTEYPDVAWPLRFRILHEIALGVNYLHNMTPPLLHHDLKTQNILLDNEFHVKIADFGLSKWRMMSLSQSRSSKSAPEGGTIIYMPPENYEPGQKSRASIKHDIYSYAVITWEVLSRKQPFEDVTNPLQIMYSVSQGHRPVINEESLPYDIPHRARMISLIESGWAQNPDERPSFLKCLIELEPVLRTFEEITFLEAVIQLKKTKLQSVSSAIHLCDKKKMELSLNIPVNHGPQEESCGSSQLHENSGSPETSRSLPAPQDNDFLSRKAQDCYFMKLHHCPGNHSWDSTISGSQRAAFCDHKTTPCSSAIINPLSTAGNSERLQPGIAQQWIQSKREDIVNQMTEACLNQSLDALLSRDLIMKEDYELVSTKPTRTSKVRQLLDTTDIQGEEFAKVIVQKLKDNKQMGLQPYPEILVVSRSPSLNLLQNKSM

[4] = biological target: T4, 340 wild-type kinases (Homo sapiens, UniProt Q15418)
T4 construct: purchased Reaction Biology Europe
T4 sequence (Q15418 whole entry): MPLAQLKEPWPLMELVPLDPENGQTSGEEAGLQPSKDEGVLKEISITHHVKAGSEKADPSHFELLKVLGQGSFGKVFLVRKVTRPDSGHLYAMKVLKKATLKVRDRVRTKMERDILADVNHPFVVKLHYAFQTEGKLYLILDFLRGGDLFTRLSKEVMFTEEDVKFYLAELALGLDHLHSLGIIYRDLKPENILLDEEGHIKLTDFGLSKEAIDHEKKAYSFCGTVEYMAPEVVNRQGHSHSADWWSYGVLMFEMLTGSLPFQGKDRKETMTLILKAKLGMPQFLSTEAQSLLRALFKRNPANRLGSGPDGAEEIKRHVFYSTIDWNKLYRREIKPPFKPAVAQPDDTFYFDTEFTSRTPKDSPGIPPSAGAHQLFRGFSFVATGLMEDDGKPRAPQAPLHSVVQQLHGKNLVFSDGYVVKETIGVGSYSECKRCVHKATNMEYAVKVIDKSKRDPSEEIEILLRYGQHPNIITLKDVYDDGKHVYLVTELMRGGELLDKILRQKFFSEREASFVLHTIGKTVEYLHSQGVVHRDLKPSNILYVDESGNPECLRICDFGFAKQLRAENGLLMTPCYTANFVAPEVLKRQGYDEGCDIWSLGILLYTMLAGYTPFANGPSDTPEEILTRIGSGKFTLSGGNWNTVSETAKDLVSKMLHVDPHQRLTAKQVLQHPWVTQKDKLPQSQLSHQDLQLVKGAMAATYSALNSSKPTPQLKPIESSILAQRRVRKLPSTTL

[5] = biological target: T5, 340 wild-type kinases (Homo sapiens, UniProt Q6P5Z2)
T5 construct: purchased Reaction Biology Europe
T5 sequence (Q6P5Z2 whole entry): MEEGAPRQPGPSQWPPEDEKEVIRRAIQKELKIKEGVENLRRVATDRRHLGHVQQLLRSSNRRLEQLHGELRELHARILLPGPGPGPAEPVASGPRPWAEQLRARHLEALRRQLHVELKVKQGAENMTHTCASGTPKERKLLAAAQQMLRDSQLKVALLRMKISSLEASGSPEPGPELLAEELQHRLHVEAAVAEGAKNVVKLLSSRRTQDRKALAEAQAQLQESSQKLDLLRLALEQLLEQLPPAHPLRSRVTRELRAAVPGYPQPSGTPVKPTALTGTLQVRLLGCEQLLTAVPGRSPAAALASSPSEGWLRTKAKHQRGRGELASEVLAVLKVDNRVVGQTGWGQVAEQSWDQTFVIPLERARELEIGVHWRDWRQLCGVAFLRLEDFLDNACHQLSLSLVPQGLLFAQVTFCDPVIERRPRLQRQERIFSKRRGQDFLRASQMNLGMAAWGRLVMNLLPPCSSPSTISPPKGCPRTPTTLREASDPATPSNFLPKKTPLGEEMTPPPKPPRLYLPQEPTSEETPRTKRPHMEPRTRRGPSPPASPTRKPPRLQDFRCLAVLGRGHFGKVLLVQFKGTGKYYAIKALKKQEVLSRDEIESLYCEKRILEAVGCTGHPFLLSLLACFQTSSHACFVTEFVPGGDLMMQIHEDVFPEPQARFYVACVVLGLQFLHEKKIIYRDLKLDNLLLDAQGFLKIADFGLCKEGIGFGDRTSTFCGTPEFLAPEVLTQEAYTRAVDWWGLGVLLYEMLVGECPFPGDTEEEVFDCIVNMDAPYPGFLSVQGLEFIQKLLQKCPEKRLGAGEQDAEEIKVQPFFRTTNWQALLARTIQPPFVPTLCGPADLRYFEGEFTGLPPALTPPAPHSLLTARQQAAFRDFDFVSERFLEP

[6] = biological target: T6, 340 wild-type kinases (Homo sapiens, UniProt Q13043)
T6 construct: purchased Reaction Biology Europe
T6 sequence (Q13043 1-487): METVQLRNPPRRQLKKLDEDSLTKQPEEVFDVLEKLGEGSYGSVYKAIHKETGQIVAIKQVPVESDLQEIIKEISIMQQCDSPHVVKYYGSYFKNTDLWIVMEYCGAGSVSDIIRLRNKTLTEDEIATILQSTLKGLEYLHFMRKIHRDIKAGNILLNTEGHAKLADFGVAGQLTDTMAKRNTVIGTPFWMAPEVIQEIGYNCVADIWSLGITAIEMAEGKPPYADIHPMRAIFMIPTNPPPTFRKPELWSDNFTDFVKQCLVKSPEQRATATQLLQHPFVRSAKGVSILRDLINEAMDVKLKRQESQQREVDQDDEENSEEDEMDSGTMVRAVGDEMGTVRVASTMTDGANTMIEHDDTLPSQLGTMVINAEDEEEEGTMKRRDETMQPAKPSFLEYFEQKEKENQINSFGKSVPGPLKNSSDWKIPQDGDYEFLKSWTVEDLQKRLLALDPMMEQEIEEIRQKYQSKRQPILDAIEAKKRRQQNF

[7] = biological target: T7, 340 wild-type kinases (Homo sapiens, UniProt Q13131)
T7 construct: purchased Reaction Biology Europe
T7 sequence (Q13131 whole entry): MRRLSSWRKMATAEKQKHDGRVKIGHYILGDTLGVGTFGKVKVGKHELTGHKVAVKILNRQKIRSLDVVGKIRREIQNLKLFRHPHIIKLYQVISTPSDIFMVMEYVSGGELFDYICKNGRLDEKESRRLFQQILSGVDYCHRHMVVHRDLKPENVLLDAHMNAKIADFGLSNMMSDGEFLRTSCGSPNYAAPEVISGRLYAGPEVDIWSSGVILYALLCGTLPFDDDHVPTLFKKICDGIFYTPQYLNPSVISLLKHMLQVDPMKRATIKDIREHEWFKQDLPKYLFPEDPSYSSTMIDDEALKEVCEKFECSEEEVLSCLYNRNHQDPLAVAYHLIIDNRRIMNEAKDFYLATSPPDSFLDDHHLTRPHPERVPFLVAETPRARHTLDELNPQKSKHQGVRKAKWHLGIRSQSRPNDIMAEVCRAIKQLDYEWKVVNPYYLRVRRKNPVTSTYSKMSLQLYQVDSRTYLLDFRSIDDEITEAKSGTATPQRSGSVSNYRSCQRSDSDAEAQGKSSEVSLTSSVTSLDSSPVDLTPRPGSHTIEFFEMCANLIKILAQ

[8] = biological target: T8, 340 wild-type kinases (Homo sapiens, UniProt Q6XUX3)
T8 construct: purchased Reaction Biology Europe
T8 sequence (Q6XUX3 1-929): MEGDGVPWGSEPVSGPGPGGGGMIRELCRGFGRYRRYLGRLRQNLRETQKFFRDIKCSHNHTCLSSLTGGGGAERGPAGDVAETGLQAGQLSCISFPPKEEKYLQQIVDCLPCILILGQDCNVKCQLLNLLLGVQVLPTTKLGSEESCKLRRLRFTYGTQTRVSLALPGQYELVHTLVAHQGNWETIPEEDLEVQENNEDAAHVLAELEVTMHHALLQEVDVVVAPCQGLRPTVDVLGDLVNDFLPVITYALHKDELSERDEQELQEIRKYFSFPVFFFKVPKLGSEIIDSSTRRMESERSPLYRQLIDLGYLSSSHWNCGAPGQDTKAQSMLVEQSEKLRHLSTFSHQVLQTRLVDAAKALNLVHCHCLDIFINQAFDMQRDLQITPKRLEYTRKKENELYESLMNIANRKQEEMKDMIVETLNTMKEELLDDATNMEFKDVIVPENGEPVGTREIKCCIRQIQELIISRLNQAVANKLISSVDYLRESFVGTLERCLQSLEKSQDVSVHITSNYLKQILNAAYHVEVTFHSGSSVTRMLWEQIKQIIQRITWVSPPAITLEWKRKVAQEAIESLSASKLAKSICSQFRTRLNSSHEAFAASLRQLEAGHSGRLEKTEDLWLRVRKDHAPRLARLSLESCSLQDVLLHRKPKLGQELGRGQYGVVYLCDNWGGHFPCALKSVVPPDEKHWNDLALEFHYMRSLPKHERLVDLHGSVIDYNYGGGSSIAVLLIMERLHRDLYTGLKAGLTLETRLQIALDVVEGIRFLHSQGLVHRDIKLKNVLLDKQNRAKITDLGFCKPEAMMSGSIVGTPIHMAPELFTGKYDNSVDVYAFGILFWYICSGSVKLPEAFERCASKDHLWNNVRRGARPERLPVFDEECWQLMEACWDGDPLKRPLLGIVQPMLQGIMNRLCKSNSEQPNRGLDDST

[9] = biological target: T9, 340 wild-type kinases (Homo sapiens, UniProt P42679)
T9 construct: purchased Reaction Biology Europe
T9 sequence (P42679 1-507): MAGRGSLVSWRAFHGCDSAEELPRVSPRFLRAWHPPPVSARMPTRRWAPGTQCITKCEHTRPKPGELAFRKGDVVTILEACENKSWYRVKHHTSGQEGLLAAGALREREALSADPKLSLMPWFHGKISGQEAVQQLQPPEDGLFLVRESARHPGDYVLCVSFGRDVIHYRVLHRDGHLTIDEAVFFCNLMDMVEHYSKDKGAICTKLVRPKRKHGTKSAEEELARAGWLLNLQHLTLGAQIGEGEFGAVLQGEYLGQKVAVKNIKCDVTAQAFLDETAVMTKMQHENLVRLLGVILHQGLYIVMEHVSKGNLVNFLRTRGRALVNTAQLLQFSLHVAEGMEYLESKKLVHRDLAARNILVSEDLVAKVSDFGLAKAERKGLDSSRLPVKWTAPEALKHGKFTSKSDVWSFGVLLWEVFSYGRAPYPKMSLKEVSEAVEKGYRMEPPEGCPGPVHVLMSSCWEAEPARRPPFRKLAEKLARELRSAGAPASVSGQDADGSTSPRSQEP

## CNC(=O)c1ccc2c(c1)C(=O)c1ccc(Nc3ccc(F)c(NC(=O)C4CC4)c3)cc1CC2 [Compound 2015]
[1]; 0.2 µM 2015, read-out: MST3 residual activity
  remaining activity at 0.2 µM: 119%
[1]; 1 µM 2015, read-out: MST3 residual activity
  remaining activity at 1 µM: 117%
[1]; MST3, 0.2 µM, read-out: residual activity
  remaining activity at 0.2 µM: 119%
[1]; MST3, 1 µM, read-out: residual activity
  remaining activity at 1 µM: 117%
[2]; 0.2 µM 2015, read-out: PDGFRalpha residual activity
  remaining activity at 0.2 µM: 102%
[2]; 1 µM 2015, read-out: PDGFRalpha residual activity
  remaining activity at 1 µM: 95.4%
[2]; PDGFRalpha, 0.2 µM, read-out: residual activity
  remaining activity at 0.2 µM: 102%
[2]; PDGFRalpha, 1 µM, read-out: residual activity
  remaining activity at 1 µM: 95.4%
[3]; 0.2 µM 2015, read-out: RIPK2 residual activity
  remaining activity at 0.2 µM: 73.7%
[3]; 1 µM 2015, read-out: RIPK2 residual activity
  remaining activity at 1 µM: 120%
[3]; RIPK2, 0.2 µM, read-out: residual activity
  remaining activity at 0.2 µM: 73.7%
[3]; RIPK2, 1 µM, read-out: residual activity
  remaining activity at 1 µM: 120%
[4]; 0.2 µM 2015, read-out: RPS6KA1 residual activity
  remaining activity at 0.2 µM: 100%
[4]; 1 µM 2015, read-out: RPS6KA1 residual activity
  remaining activity at 1 µM: 94.3%
[4]; RPS6KA1, 0.2 µM, read-out: residual activity
  remaining activity at 0.2 µM: 100%
[4]; RPS6KA1, 1 µM, read-out: residual activity
  remaining activity at 1 µM: 94.3%
[5]; 0.2 µM 2015, read-out: PKN3 residual activity
  remaining activity at 0.2 µM: 84.5%
[5]; 1 µM 2015, read-out: PKN3 residual activity
  remaining activity at 1 µM: 95.6%
[5]; PKN3, 0.2 µM, read-out: residual activity
  remaining activity at 0.2 µM: 84.5%
[5]; PKN3, 1 µM, read-out: residual activity
  remaining activity at 1 µM: 95.6%
[6]; 0.2 µM 2015, read-out: MST1 residual activity
  remaining activity at 0.2 µM: 98.1%
[6]; 1 µM 2015, read-out: MST1 residual activity
  remaining activity at 1 µM: 100%
[6]; MST1, 0.2 µM, read-out: residual activity
  remaining activity at 0.2 µM: 98.1%
[6]; MST1, 1 µM, read-out: residual activity
  remaining activity at 1 µM: 100%
[7]; 0.2 µM 2015, read-out: AMPKalpha1 residual activity
  remaining activity at 0.2 µM: 91.7%
[7]; 1 µM 2015, read-out: AMPKalpha1 residual activity
  remaining activity at 1 µM: 101%
[7]; AMPKalpha1, 0.2 µM, read-out: residual activity
  remaining activity at 0.2 µM: 91.8%
[7]; AMPKalpha1, 1 µM, read-out: residual activity
  remaining activity at 1 µM: 101%
[8]; 0.2 µM 2015, read-out: RIPK5 residual activity
  remaining activity at 0.2 µM: 92.4%
[8]; 1 µM 2015, read-out: RIPK5 residual activity
  remaining activity at 1 µM: 88.1%
[8]; RIPK5, 0.2 µM, read-out: residual activity
  remaining activity at 0.2 µM: 92.4%
[8]; RIPK5, 1 µM, read-out: residual activity
  remaining activity at 1 µM: 88.1%
[9]; 0.2 µM 2015, read-out: MATK residual activity
  remaining activity at 0.2 µM: 112%
[9]; 1 µM 2015, read-out: MATK residual activity
  remaining activity at 1 µM: 100%
[9]; MATK, 0.2 µM, read-out: residual activity
  remaining activity at 0.2 µM: 112%
[9]; MATK, 1 µM, read-out: residual activity
  remaining activity at 1 µM: 100%
